# Source: article PMC11124341, “4-Hydroxybenzoic Acid-Based Hydrazide–Hydrazones as Potent Growth Inhibition Agents of Laccase-Producing Phytopathogenic Fungi That Are Useful in the Protection of Oilseed Crops” (Molecules, 2024)
# How the values were obtained:
# MCF-10A cells = assay: Antiproliferative assay in vitro (SRB); type: cell-based, human; conditions: Homo sapiens, MCF-10A; 72 h exposure, SRB method; read-out: Average IC50 ± SD, MCF-10A line
# Procedure: Antiproliferative tests were performed on a normal human breast cell line, MCF-10A, and a mouse embryonic fibroblast: Balb/3T3. Both cell lines were obtained from the American Type Culture Collection (Rockville, MD, USA). The cell lines were maintained in the Institute of Immunology and Experimental Therapy, Wroclaw, Poland. MCF-10A cells were cultured in the F-12 nutrient mixture (Gibco, Scotland, UK), supplemented with 5% horse serum (Gibco, Scotland, UK), […] (Vibrio cholerae Pacini), 10 μg/mL of hydrocortisone and 20 ng/mL of human epidermal growth factor (all from Sigma-Aldrich, Chemie GmbH, Steinheim, Germany). Balb/3T3 cells were cultured in Dulbecco medium (Gibco, Darmstadt, Germany) supplemented with 10% fetal bovine serum (Thermo Fisher Scientific, Waltham, MA, USA) and 2 mM l-glutamine (Sigma-Aldrich, St. Louis, MO, USA). All culture media contained antibiotics: 100 U/mL penicillin (Sigma-Aldrich, St. Louis, MO, USA) and 100 µg/mL streptomycin (Polfa-Tarchomin, Warsaw, Poland). Both cell lines were cultured during the entire experiment in a humid atmosphere at 37 °C and 5% CO2. Amistar 250 SC (fungicide) with active compound azoxystrobin was provided by the Institute of Soil Science and Plant Cultivation, National Research Institute in Pulawy, Department of Weed Science and Tillage Systems in Wroclaw, Poland […].
# Twenty-four hours prior to the applications of the tested compounds, MCF-10A and Balb/3T3 cells were plated in 96-well plates at a density of 10^4 cells per well and cultured at 37 °C in a humid atmosphere saturated with 5% CO2 for 24 h. Stock solutions of the compounds were prepared ex tempore for each test by dissolving in DMSO. The cells were also exposed to the reference drugs: cis-platin (Accord, London, UK) (10–0.01 µg/mL) and DMSO (Sigma-Aldrich) (at the concentrations corresponding to those in the tested agent dilutions). The solutions were then diluted in culture medium RPMI 1640 + Opti-MEM (1:1) (both from Gibco, Scotland, UK), supplemented with 2 mM l-glutamine, 5% fetal bovine serum (all from Sigma-Aldrich Chemie GmbH, Steinheim, Germany). An assay was performed after 72 h of exposure to the tested compounds 13, 17, 18, 19, 25, 27, 30, 4-hba, 4-hbah, and 3,4,5-hba (0.5, 5.0, 50, and to 500 µM) and azoxystrobin fungicide (0.05, 0.5, 5.0 and 50 µM). The antiproliferative effect in vitro was determined by the SRB method (sulforhodamine B colorimetric assay). The optical densities of the samples were measured on the Synergy H4 photometer (BioTek Instruments, Winooski, VT, USA) at 540 nm. The results were calculated as 50% inhibitory concentration (IC50), namely the dose of the tested compound inhibiting proliferation of the tested cells by 50% as compared to the untreated control cells, in the Prolab-3 system based on Cheburator 0.4 software using the two-point method. Each test was repeated 3–5 times.
# Cytotoxicity was performed on two normal cell lines: MCF -10A and Balb/3T3, using as controls cis-platin in the concentrations of 0.03 32, 0.3 32, 3.32 and 33.2 µM and azoxystrobin fungicide in the […]
# were tested in the concentrations of 0.5, 5.0, 50, and 500 µM. The relation of compound concentration […]
# Further, a comparison of the influence of each tested concentration in the group of tested compounds on cell lines was illustrated in Figure S130 a (MCF-10A) and b (Balb/T3T).
# Table S4. Cytotoxicity results for compounds 13, 17, 18, 19, 25, 27, and 30 investigated on normal mammalian lines: MCF -10A and B alb/3T3 using Azoxystrobin (fungicide) and cis-platin as reference compounds.
# Cytotoxicity profile presented as proliferation inhibition, % (y -axis) in the function of compound concentration, […]
# Structure MCF-10A Balb/3T3
# Proliferation inhibition [%] […]
# [1] = test system: Botrytis cinerea strain FBc05; assay: In vitro antifungal activity, mycelial growth inhibition on PDA medium; type: cell-based; conditions: for fungal growth inhibition, B. cinerea / inhibition of growth at 50 µg/mL: screening at basal 50 µg/mL, PDA medium, mean ± SD of three determinations; for inhibition at 6.25 µg/mL / inhibition at 25 µg/mL / inhibition at 50 µg/mL / IC50 / inhibition of growth at 50 µg/mL: Botrytis cinerea, FBC05; for inhibition at 6.25 µg/mL / inhibition at 25 µg/mL / inhibition at 50 µg/mL: fungicidal profile, read-out: B. cinerea inhibition; for IC50: log-logistic model, 0–50 µg/mL range, read-out: IC50 against Botrytis cinerea (Bc); for inhibition of growth at 50 µg/mL: read-out: fungal growth inhibition, B. cinerea
Structure (SMILES),IC50 (MCF-10A cells) [µM],"fungal growth inhibition, B. cinerea [1]",inhibition at 6.25 µg/mL [1] [%],inhibition at 25 µg/mL [1] [%],inhibition at 50 µg/mL [1] [%],IC50 [1] [µg/mL],inhibition of growth at 50 µg/mL [1] [%]
COc1cc(/C=N/NC(=O)c2ccc(O)cc2)ccc1O [compound 17],275 ± 41.5,n.o.,,,,,
CC(C)(C)c1cccc(/C=N/NC(=O)c2ccc(O)cc2)c1O [compound 18],6.41 ± 2.05,,20.2,56.4,64.7,20,82.1 ± 3.1
O=C(N/N=C/c1cccc(-c2ccccc2)c1O)c1ccc(O)cc1 [compound 19],3.44 ± 0.83,,30.1,70.1,74.1,13.9,73.5 ± 3.3
Cc1cc(/C=N/NC(=O)c2ccc(O)cc2)c(O)c(CO)c1 [compound 25],27.5 ± 1.83,,,,,,2.8 ± 1.9
CC(C)(C)c1cc(/C=N/NC(=O)c2ccc(O)cc2)c(O)c(C(C)(C)C)c1 [compound 27],7.73 ± 1.08,,,,,,23.4 ± 2.7
O=C(N/N=C/c1cc(O)ccc1O)c1ccc(O)cc1 [compound 13],213 ± 34.1,n.o.,,,,,
Cc1cc(/C=N/NC(=O)c2ccc(O)cc2)c(O)c(C(C)(C)C)c1 [compound 30],8.85 ± 5.47,,,,,62.5,76.2 ± 2.2
